Reference: US10350199B2, “3-(1h-pyrrolo[2,3-b]pyridin-2-yl)-1h-indazoles and therapeutic uses thereof” (Samumed, LLC, priority 2015, dated 2019)

How the values were obtained:
Type in all cases: cell-based
[1] = system: Wnt activity (Sp5-Luc reporter, SW480 colon carcinoma cells); assay: Wnt activity screening assay, Sp5-Luc reporter gene in SW480 cells; conditions: Homo sapiens; for EC50: Sp5-Luc reporter, SW480 cells, overnight incubation; for inhibition at 10 µM: SW480, read-out: percent inhibition at 10 μM
Procedure, shortened: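 Read-out is BrightGlo luminescence, normalized to DMSO-treated cells and fitted by four-parameter variable-slope regression for EC50. Reporter cells: SW480 colon carcinoma carrying a stable lentiviral Sp5-Luc construct with eight TCF/LEF sites, seeded 4,000/well in 1% FBS, incubated overnight at 37° C.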

[2] = system: SW480 colon cancer cells; assay: Cell viability assay (CellTiter-Blue), SW480 cells, four days; conditions: Homo sapiens; for EC50: 96 h, SW480 cell viability, four days, CellTiter-Blue; for inhibition at 10 µM: SW480, read-out: percent inhibition at 10 μM
Procedure, shortened: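 Fluorescence from resazurin reduced to resorufin by metabolically active cells was the read-out, taken after ~3 h with CellTiter-Blue.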

[3] = system: primary human fibroblasts derived from IPF patients (LL29 cells) treated with TGF-β1; assay: Inhibition of the fibrotic process: αSMA staining in TGF-β1 treated LL29 fibroblasts; conditions: Fibroblast; for EC50: 96 h, LL29 cells, TGF-β1 20 ng/mL, 4 days, % αSMA positive cells; for inhibition at 10 µM: read-out: percent inhibition at 10 μM
Procedure, shortened: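 Read-out after 4-day incubation: αSMA staining with 1 μM SYTOX green nuclear counterstain (30 min, room temperature). Cells were LL29 primary fibroblasts from IPF patients, in 1% FBS F12, exposed to TGF-β1 with test compound, referenced to TGF-β1/DMSO control wells.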

[4] = system: primary human mesenchymal stem cells (hMSCs); assay: Induction of chondrogenesis in human mesenchymal stem cells (nodule area, Rhodamine B/Nile Red); conditions: hMSC chondrogenesis; for EC50: concentration required to induce 50% levels of chondrogenesis of TGF-β3 positive control, read-out: Conc (nM) of 50% TGF-β3 activity; for Emax: relative to TGF-β3 (10 ng/mL) positive control, read-out: Max. Activity as % TGF-β3 activity
Description: Representative compounds were screened using primary human mesenchymal stem cells (hMSCs) to determine their ability to induce chondrogenesis (process by which cartilage is developed).
Primary human mesenchymal stem cells (hMSCs) were purchased from Lonza (Walkersville, Md.) and expanded in Mesenchymal Stem Cell Growth Media (Lonza). Cells between passage 3 and 6 were used for the experiments.
Area of nodules in each well was normalized to the average of 3 DMSO treated wells on the same plate using Excel (Microsoft Inc.). The normalized averages (fold change over DMSO) of 2 or 3 replicate wells for each compound concentration were calculated. Due to solubility limitations of some of the compounds, curve fitting was incomplete leading to inaccurate EC50 determinations.
Using TGF-β3 as a positive control, the concentration of representative compounds required to induce 50% levels of chondrogenesis is reported. In addition, the maximum activity of each compound and the respective dose that each compound reached maximum chondrogenesis activity is reported.

[5] = system: IL-6 (THP-1 human monocyte cell line); assay: IL-6 inhibition in LPS-stimulated THP-1 cells (HTRF); conditions: for EC50: IL-6 inhibition, LPS-stimulated THP-1 cells, HTRF; for inhibition at 10 µM: THP-1, read-out: percentage in parentheses beside EC50 >10 (IL-6 inhibition)
Procedure, shortened: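 After 24 h in 1% FBS medium, cells had compound 2 h before 500 ng/mL LPS, then 22 h more at 37 °C. DMSO-normalized HTRF signal (665/620 nm ratio, anti-IL-6 antibody pair) was fitted with a variable-slope four-parameter model to give EC50.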

SMILES | EC50 [1] [nM] | EC50 [2] [nM] | inhibition at 10 µM [2] [%] | EC50 [3] [nM] | inhibition at 10 µM [3] [%] | EC50 [4] [nM] | Emax [4] [%] | EC50 [5] [nM] | inhibition at 10 µM [1] [%] | inhibition at 10 µM [5] [%]
CC(C)CC(=O)Nc1cncc(-c2ccc3[nH]nc(-c4cc5c(-c6cccnc6)ccnc5[nH]4)c3c2)c1 [Compound 86, 3-Methyl-N-(5-(3-(4-(pyridin-3-yl)-1H-pyrrolo[2,3-b]pyridin-2-yl)-1H-indazol-5-yl)pyridin-3-yl)butanamide] | 184 | > 10000 | 44.6 | > 10000 | 25.9 | 900 | 104 | 550 |  | 
CC(C)C(=O)Nc1cncc(-c2ccc3[nH]nc(-c4cc5cccnc5[nH]4)c3c2)c1 [Compound 261, N-(5-(3-(1H-Pyrrolo[2,3-b]pyridin-2-yl)-1H-indazol-5-yl)pyridin-3-yl) isobutyramide] | 178 | 405 |  | 102 |  | 900 | 131 | 9 |  | 
CN(C)c1cncc(-c2ccc3[nH]nc(-c4cc5c(-c6ccccn6)ccnc5[nH]4)c3c2)c1 [Compound 147, N,N-Dimethyl-5-(3-(4-(pyridin-2-yl)-1H-pyrrolo[2,3-b]pyridin-2-yl)-1H-indazol-5-yl)pyridin-3-amine] | > 10000 | > 10000 | 15.4 | > 10000 | 34 | 10 | 77 | > 10000 | 13.7 | 30.5
Cc1ccncc1-c1ccc2[nH]nc(-c3cc4c(-c5ccccc5F)ccnc4[nH]3)c2c1 [Compound 61, 3-(4-(2-Fluorophenyl)-1H-pyrrolo[2,3-b]pyridin-2-yl)-5-(4-methylpyridin-3-yl)-1H-indazole] | > 10000 | > 10000 | 14.9 | 450 |  | 30 | 54 | > 10000 | 3.5 | 22.7
c1cc(-c2ccnc3[nH]c(-c4n[nH]c5ccc(-c6cncnc6)cc45)cc23)ccn1 [Compound 139, 3-(4-(Pyridin-4-yl)-1H-pyrrolo[2,3-b]pyridin-2-yl)-5-(pyrimidin-5-yl)-1H-indazole] | > 10000 | > 10000 | 5.3 | > 10000 | 14.5 |  | 17 | > 10000 | 7.5 | 43.1
CN1CCN(c2ccnc3[nH]c(-c4n[nH]c5ccc(-c6cncc(CNCc7ccccc7)c6)cc45)cc23)CC1 [Compound 248, N-Benzyl-1-(5-(3-(4-(4-methylpiperazin-1-yl)-1H-pyrrolo[2,3-b]pyridin-2-yl)-1H-indazol-5-yl)pyridin-3-yl)methanamine] | 3370 | 2170 |  | 2260 |  |  | 17 | 7730 |  | 
O=C(Nc1cncc(-c2ccc3[nH]nc(-c4cc5cccnc5[nH]4)c3c2)c1)C1CCCC1 [Compound 274, N-(5-(3-(1H-Pyrrolo[2,3-b]pyridin-2-yl)-1H-indazol-5-yl)pyridin-3-yl) cyclopentanecarboxamide] | 271 | 656 |  | 427 |  |  | 30 | 18 |  | 
CC(C)(C)C(=O)Nc1cncc(-c2ccc3[nH]nc(-c4cc5c(-c6ccncc6)ccnc5[nH]4)c3c2)c1 [Compound 120, N-(5-(3-(4-(Pyridin-4-yl)-1H-pyrrolo[2,3-b]pyridin-2-yl)-1H-indazol-5-yl)pyridin-3-yl)pivalamide] | > 10000 | > 10000 | 10.7 | > 10000 | 12.8 |  | 44 | > 10000 | 36.6 | 35.6
Nc1cncc(-c2ccc3[nH]nc(-c4cc5cccnc5[nH]4)c3c2)c1 [Compound 255, 5-(3-(1H-Pyrrolo[2,3-b]pyridin-2-yl)-1H-indazol-5-yl)pyridin-3-amine] | 102 | 632 |  | 138 |  |  | 36 | 15 |  | 
c1cnc2[nH]c(-c3n[nH]c4ccc(-c5cncc(OCCN6CCCC6)c5)cc34)cc2c1 [Compound 658, 5-(5-(2-(Pyrrolidin-1-yl)ethoxy)pyridin-3-yl)-3-(1H-pyrrolo[2,3-b]pyridin-2-yl)-1H-indazole] | 3300 | 3940 |  | 1200 |  |  | 43 | 205 |  | 
CCNCc1cncc(-c2ccc3[nH]nc(-c4cc5c(-c6cccc(F)c6)ccnc5[nH]4)c3c2)c1 [Compound 6, N-((5-(3-(4-(3-Fluorophenyl)-1H-pyrrolo[2,3-b]pyridin-2-yl)-1H-indazol-5-yl)pyridin-3-yl)methyl)ethanamine] | 1680 | 561 |  | 1200 |  | 30 | 59 | 3970 |  | 
Fc1ccc(-c2ccnc3[nH]c(-c4n[nH]c5ccc(-c6cncnc6)cc45)cc23)cc1 [Compound 55, 3-(4-(4-Fluorophenyl)-1H-pyrrolo[2,3-b]pyridin-2-yl)-5-(pyrimidin-5-yl)-1H-indazole] | > 10000 | > 10000 | 17.3 | > 10000 | 7.3 | 2700 | 82 | > 10000 | 11.7 | 25.6
CN1CCN(c2ccnc3[nH]c(-c4n[nH]c5ccc(-c6cncc(CN7CCCC7)c6)cc45)cc23)CC1 [Compound 238, 3-(4-(4-Methylpiperazin-1l-yl)-1H-pyrrolo[2,3-b]pyridin-2-yl)-5-(5-(pyrrolidin-1-ylmethyl)pyridin-3-yl)-1H-indazole] | 3480 | 4340 |  | 1920 |  |  | 22 | > 10000 |  | 29.4
c1cnc2[nH]c(-c3n[nH]c4ccc(-c5cncc(CN6CCCCC6)c5)cc34)cc2c1 [Compound 267, 5-(5-(Piperidin-1-ylmethyl)pyridin-3-yl)-3-(1H-pyrrolo[2,3-b]pyridin-2-yl)-1H-indazole] | 1670 | 675 |  | 458 |  | 10 | 51 | 177 |  | 
CCC(=O)Nc1cncc(-c2ccc3[nH]nc(-c4cc5c(-c6cccc(F)c6)ccnc5[nH]4)c3c2)c1 [Compound 1, N-(5-(3-(4-(3-Fluorophenyl)-1H-pyrrolo[2,3-b]pyridin-2-yl)-1H-indazol-5-yl)pyridin-3-yl)propionamide] | 13 | 1030 |  | 141 |  | 100 | 167 | 6140 |  | 
Nc1cncc(-c2ccc3[nH]nc(-c4cc5c(-c6ccccn6)ccnc5[nH]4)c3c2)c1 [Compound 143, 5-(3-(4-(Pyridin-2-yl)-1H-pyrrolo[2,3-b]pyridin-2-yl)-1H-indazol-5-yl) pyridin-3-amine] | 22 | 89 |  | 45 |  |  | 46 | 83 |  | 
CN(C)Cc1cncc(-c2cc(F)c3[nH]nc(-c4cc5c(-c6cccc(F)c6)ccnc5[nH]4)c3c2)c1 [Compound 992, 1-(5-(7-Fluoro-3-(4-(3-fluorophenyl)-1H-pyrrolo[2,3-b]pyridin-2-yl)-1H-indazol-5-yl)pyridin-3-yl)-N,N-dimethylmethanamine] | > 10000 | > 10000 | 3.6 | > 10000 | 5.2 |  | 35 | > 10000 | 17 | 34.2
CCCCC(=O)Nc1cncc(-c2ccc3[nH]nc(-c4cc5c(-c6ccncc6)ccnc5[nH]4)c3c2)c1 [Compound 131, N-(5-(3-(4-(Pyridin-4-yl)-1H-pyrrolo[2,3-b]pyridin-2-yl)-1H-indazol-5-yl)pyridin-3-yl)pentanamide] | > 10000 | > 10000 | 10.6 | > 10000 | 6.3 |  | 18 | > 10000 | 16.7 | 31.5
